From patent publication US9040458B2, “Safening composition of 6-(trisubstituded phenyl)-4-amino-2-pyridinecarboxylate herbicides and cloquintocet-mexyl for cereal crops” (Dow AgroSciences LLC, priority 2008, dated 2015)

How the values were obtained:
Conditions in all cases: 20-22 d
[1] = test system: TRZAS = Triticum aestivum (spring wheat); assay: Postemergence herbicidal safening, greenhouse, visual injury; assay type: in vivo
Protocol: (§1) Seeds of the desired test plant species were planted in Sun Gro MetroMix® 306 planting mixture, which typically has a pH of 6.0 to 6.8 and an organic matter content of about 30 percent, in plastic pots with a surface area of 103.2 square centimeters (cm^2). When required to ensure good germination and healthy plants, a fungicide treatment and/or other chemical or physical treatment was applied. The plants were grown for 7-36 days (d) in a greenhouse with an approximate […] photoperiod which was maintained at about 18° C. during the day and 17° C. during the night. Nutrients and water were added on a regular basis and supplemental lighting was provided with overhead metal halide 1000-Watt lamps as necessary. The plants were employed for testing when they reached the second or third true leaf stage.
(§2) Weighed amounts of esters (methyl) or salts (TEA [triethylammonium], potassium [K]) of 4-amino-3-chloro-6-(4-chloro-2-fluoro-3-methoxyphenyl)pyridine-2-carboxylic acid (Compound 1) were dissolved in a volume of 97:3 volume/volume (v/v) acetone/dimethylsulfoxide (DMSO) to obtain stock solutions. […] The concentrated stock solutions were diluted with an aqueous mixture of 1.5% v/v of Agri-dex crop oil concentrate to provide the appropriate application rates. Compound requirements are based upon a 12 mL application volume at a rate of 187 liters per hectare (L/ha). Stocks solutions of the safeners were prepared following the same procedure. Spray solutions of the safeners and experimental compound mixtures were prepared by adding the appropriate volume of both stock solutions to the appropriate amount of dilution solution to form a 12 mL spray solution with active ingredients in two-way combinations. Formulated compounds were applied to the plant material with an overhead Mandel track sprayer equipped with 8002E nozzles calibrated to deliver 187 L/ha over an application area of 0.503 square meters (m^2) at a spray height of 18 inches (43 centimeters (cm)) above average plant canopy. Control plants were sprayed in the same manner with the solvent blank.
(§3) The treated plants and control plants were placed in a greenhouse as described above and watered by sub-irrigation to prevent wash-off of the test compounds. After 20-22 d, the condition of the test plants as compared with that of the control plants was determined visually and scored on a scale of 0 to 100 percent where 0 corresponds to no injury and 100 corresponds to complete kill.
(§4) Colby's equation was used to determine the herbicidal effects expected from the mixtures (Colby, S. R., Calculation of the synergistic and antagonistic response of herbicide combinations. Weeds 1967, 15, 20-22.).
(§5) The following equation was used to calculate the expected activity of mixtures containing two active ingredients, A and B: Expected=A+B−(A×B/100)
(§6) A=observed efficacy of active ingredient A at the same concentration as used in the mixture.
(§7) B=observed efficacy of active ingredient B at the same concentration as used in the mixture.

[2] = test system: HORVS = Hordeum vulgare (spring barley); assay: as above; assay type: in vivo
Protocol: as §1, §2, §3, §4, §5, §6, §7

[3] = test system: PAPRH (corn poppy); assay: Postemergence herbicidal activity, greenhouse, visual injury; assay type: in vivo, Papaver rhoeas
Protocol: as §1, §2, §3, §4, §5, §6, §7

[4] = test system: LAMPU (purple deadnettle); assay: as above; assay type: in vivo, Lamium purpureum
Protocol: as §1, §2, §3, §4, §5, §6, §7

[5] = test system: POLCO (wild buckwheat); assay: as above; assay type: in vivo, Polygonum convolvulus
Protocol: as §1, §2, §3, §4, §5, §6, §7

[6] = test system: VERPE = Veronica persica (bird's-eye speedwell); assay: as above; assay type: in vivo
Protocol: as §1, §2, §3, §4, §5, §6, §7

[7] = test system: GALAP = Galium aparine (cleavers); assay: as above; assay type: in vivo
Protocol: as §1, §2, §3, §4, §5, §6, §7

[8] = test system: STEME = Stellaria media (common chickweed); assay: as above; assay type: in vivo
Protocol: as §1, §2, §3, §4, §5, §6, §7

[9] = test system: MATCH = Matricaria chamomila (scented mayweed); assay: as above; assay type: in vivo
Protocol: as §1, §2, §3, §4, §5, §6, §7

[10] = test system: SASKR = Salsola iberica (Russian thistle); assay: as above; assay type: in vivo
Protocol: as §1, §2, §3, §4, §5, §6, §7

[11] = test system: VIOTR = Viola tricolor (wild pansy); assay: as above; assay type: in vivo
Protocol: as §1, §2, §3, §4, §5, §6, §7

[12] = test system: KCHSC = Kochia scoparia (kochia); assay: as above; assay type: in vivo
Protocol: as §1, §2, §3, §4, §5, §6, §7

O=C(O)COc1ccc(Cl)c2cccnc12 [Cloquintocet-acid, [(5-chloro-8-quinolinyl)oxy]acetic acid]
0%: TRZAS Ob (observed injury) ([1]; applied alone at 0.55 g/ha) | TRZAS Ob (observed injury) ([1]; applied alone at 1.1 g/ha) | TRZAS Ob (observed injury) ([1]; applied alone at 2.2 g/ha) | TRZAS Ob (observed injury) ([1]; applied alone at 4.4 g/ha) | HORVS Ob (observed injury) ([2]; applied alone at 0.55 g/ha) | HORVS Ob (observed injury) ([2]; applied alone at 1.1 g/ha) | HORVS Ob (observed injury) ([2]; applied alone at 2.2 g/ha) | HORVS Ob (observed injury) ([2]; applied alone at 4.4 g/ha) | PAPRH Ob (observed injury) ([3]; applied alone at 0.55 g/ha) | PAPRH Ob (observed injury) ([3]; applied alone at 1.1 g/ha) | PAPRH Ob (observed injury) ([3]; applied alone at 2.2 g/ha) | PAPRH Ob (observed injury) ([3]; applied alone at 4.4 g/ha) | LAMPU Ob (observed injury) ([4]; applied alone at 0.55 g/ha) | LAMPU Ob (observed injury) ([4]; applied alone at 1.1 g/ha) | LAMPU Ob (observed injury) ([4]; applied alone at 2.2 g/ha) | LAMPU Ob (observed injury) ([4]; applied alone at 4.4 g/ha)

CCCCCC(C)OC(=O)COc1ccc(Cl)c2cccnc12 (centres unmarked) [Cloquintocet-mexyl, cloquintocet-mexyl]
0%: POLCO Ob (observed injury) ([5]; applied alone at 1.1 g/ha) | POLCO Ob (observed injury) ([5]; applied alone at 2.2 g/ha) | POLCO Ob (observed injury) ([5]; applied alone at 4.4 g/ha) | POLCO Ob (observed injury) ([5]; applied alone at 8.75 g/ha) | POLCO Ob (observed injury) ([5]; applied alone at 17.5 g/ha) | POLCO Ob (observed injury) ([5]; applied alone at 35 g/ha) | POLCO Ob (observed injury) ([5]; applied alone at 70 g/ha) | PAPRH Ob (observed injury) ([3]; applied alone at 1.1 g/ha) | PAPRH Ob (observed injury) ([3]; applied alone at 2.2 g/ha) | PAPRH Ob (observed injury) ([3]; applied alone at 4.4 g/ha) | PAPRH Ob (observed injury) ([3]; applied alone at 8.75 g/ha) | PAPRH Ob (observed injury) ([3]; applied alone at 17.5 g/ha) | PAPRH Ob (observed injury) ([3]; applied alone at 35 g/ha) | PAPRH Ob (observed injury) ([3]; applied alone at 70 g/ha) | LAMPU Ob (observed injury) ([4]; applied alone at 1.1 g/ha) | LAMPU Ob (observed injury) ([4]; applied alone at 2.2 g/ha) | LAMPU Ob (observed injury) ([4]; applied alone at 4.4 g/ha) | LAMPU Ob (observed injury) ([4]; applied alone at 8.75 g/ha) | LAMPU Ob (observed injury) ([4]; applied alone at 17.5 g/ha) | LAMPU Ob (observed injury) ([4]; applied alone at 35 g/ha) | LAMPU Ob (observed injury) ([4]; applied alone at 70 g/ha) | VERPE Ob (observed injury) ([6]; applied alone at 1.0937 g/ha) | VERPE Ob (observed injury) ([6]; applied alone at 1.1 g/ha) | VERPE Ob (observed injury) ([6]; applied alone at 2.1875 g/ha) | VERPE Ob (observed injury) ([6]; applied alone at 2.2 g/ha) | VERPE Ob (observed injury) ([6]; applied alone at 4.375 g/ha) | VERPE Ob (observed injury) ([6]; applied alone at 4.4 g/ha) | VERPE Ob (observed injury) ([6]; applied alone at 8.75 g/ha) | VERPE Ob (observed injury) ([6]; applied alone at 17.5 g/ha) | VERPE Ob (observed injury) ([6]; applied alone at 35 g/ha) | VERPE Ob (observed injury) ([6]; applied alone at 70 g/ha) | GALAP Ob (observed injury) ([7]; applied alone at 1.1 g/ha) | GALAP Ob (observed injury) ([7]; applied alone at 2.2 g/ha) | GALAP Ob (observed injury) ([7]; applied alone at 4.4 g/ha) | GALAP Ob (observed injury) ([7]; applied alone at 8.75 g/ha) | GALAP Ob (observed injury) ([7]; applied alone at 17.5 g/ha) | GALAP Ob (observed injury) ([7]; applied alone at 35 g/ha) | GALAP Ob (observed injury) ([7]; applied alone at 70 g/ha) | STEME Ob (observed injury) ([8]; applied alone at 1.1 g/ha) | STEME Ob (observed injury) ([8]; applied alone at 2.2 g/ha) | STEME Ob (observed injury) ([8]; applied alone at 4.4 g/ha) | STEME Ob (observed injury) ([8]; applied alone at 8.75 g/ha) | STEME Ob (observed injury) ([8]; applied alone at 17.5 g/ha) | STEME Ob (observed injury) ([8]; applied alone at 35 g/ha) | STEME Ob (observed injury) ([8]; applied alone at 70 g/ha) | MATCH Ob (observed injury) ([9]; applied alone at 1.0937 g/ha) | MATCH Ob (observed injury) ([9]; applied alone at 1.1 g/ha) | MATCH Ob (observed injury) ([9]; applied alone at 2.1875 g/ha) | MATCH Ob (observed injury) ([9]; applied alone at 2.2 g/ha) | MATCH Ob (observed injury) ([9]; applied alone at 4.375 g/ha) | MATCH Ob (observed injury) ([9]; applied alone at 4.4 g/ha) | MATCH Ob (observed injury) ([9]; applied alone at 8.75 g/ha) | MATCH Ob (observed injury) ([9]; applied alone at 17.5 g/ha) | MATCH Ob (observed injury) ([9]; applied alone at 35 g/ha) | MATCH Ob (observed injury) ([9]; applied alone at 70 g/ha) | SASKR Ob (observed injury) ([10]; applied alone at 1.0937 g/ha) | SASKR Ob (observed injury) ([10]; applied alone at 1.1 g/ha) | SASKR Ob (observed injury) ([10]; applied alone at 2.1875 g/ha) | SASKR Ob (observed injury) ([10]; applied alone at 2.2 g/ha) | SASKR Ob (observed injury) ([10]; applied alone at 4.375 g/ha) | SASKR Ob (observed injury) ([10]; applied alone at 4.4 g/ha) | SASKR Ob (observed injury) ([10]; applied alone at 8.75 g/ha) | SASKR Ob (observed injury) ([10]; applied alone at 17.5 g/ha) | SASKR Ob (observed injury) ([10]; applied alone at 35 g/ha) | SASKR Ob (observed injury) ([10]; applied alone at 70 g/ha) | VIOTR Ob (observed injury) ([11]; applied alone at 1.0937 g/ha) | VIOTR Ob (observed injury) ([11]; applied alone at 1.1 g/ha) | VIOTR Ob (observed injury) ([11]; applied alone at 2.1875 g/ha) | VIOTR Ob (observed injury) ([11]; applied alone at 2.2 g/ha) | VIOTR Ob (observed injury) ([11]; applied alone at 4.375 g/ha) | VIOTR Ob (observed injury) ([11]; applied alone at 4.4 g/ha) | VIOTR Ob (observed injury) ([11]; applied alone at 8.75 g/ha) | VIOTR Ob (observed injury) ([11]; applied alone at 17.5 g/ha) | VIOTR Ob (observed injury) ([11]; applied alone at 35 g/ha) | VIOTR Ob (observed injury) ([11]; applied alone at 70 g/ha) | KCHSC Ob (observed injury) ([12]; applied alone at 1.0937 g/ha) | KCHSC Ob (observed injury) ([12]; applied alone at 1.1 g/ha) | KCHSC Ob (observed injury) ([12]; applied alone at 2.1875 g/ha) | KCHSC Ob (observed injury) ([12]; applied alone at 2.2 g/ha) | KCHSC Ob (observed injury) ([12]; applied alone at 4.375 g/ha) | KCHSC Ob (observed injury) ([12]; applied alone at 4.4 g/ha) | KCHSC Ob (observed injury) ([12]; applied alone at 8.75 g/ha) | KCHSC Ob (observed injury) ([12]; applied alone at 17.5 g/ha) | KCHSC Ob (observed injury) ([12]; applied alone at 35 g/ha) | KCHSC Ob (observed injury) ([12]; applied alone at 70 g/ha)
